The text below walks through data of ChEMBL document CHEMBL1667847, “Quinazolines with intra-molecular hydrogen bonding scaffold (iMHBS) as PI3K/mTOR dual inhibitors” (Bioorg Med Chem Lett, 2011).

In test [1] the target is T1, Serine/threonine-protein kinase mTOR (Homo sapiens, UniProt P42345). As to the kind of experiment: Inhibition of mTOR.
For test [2], the target named is T2, Phosphatidylinositol 4,5-bisphosphate 3-kinase catalytic subunit alpha isoform (Homo sapiens, UniProt P42336). The test can be described thus: Inhibition of PI3Kalpha by fluorescene polarization assay.
Test [3] deals with T2, Phosphatidylinositol 4,5-bisphosphate 3-kinase catalytic subunit alpha isoform. As to the kind of experiment: Inhibition of PI3Kalpha-phosphorylation at S473 residue in human BT20 cells. The test is classed as cell-based, BT-20.
The target in test [4] is T1, Serine/threonine-protein kinase mTOR. The test can be described thus: Inhibition of mTOR at 1 uM.

SMILES strings stand for the structures.

T2 sequence (P42336 whole entry, canonical isoform): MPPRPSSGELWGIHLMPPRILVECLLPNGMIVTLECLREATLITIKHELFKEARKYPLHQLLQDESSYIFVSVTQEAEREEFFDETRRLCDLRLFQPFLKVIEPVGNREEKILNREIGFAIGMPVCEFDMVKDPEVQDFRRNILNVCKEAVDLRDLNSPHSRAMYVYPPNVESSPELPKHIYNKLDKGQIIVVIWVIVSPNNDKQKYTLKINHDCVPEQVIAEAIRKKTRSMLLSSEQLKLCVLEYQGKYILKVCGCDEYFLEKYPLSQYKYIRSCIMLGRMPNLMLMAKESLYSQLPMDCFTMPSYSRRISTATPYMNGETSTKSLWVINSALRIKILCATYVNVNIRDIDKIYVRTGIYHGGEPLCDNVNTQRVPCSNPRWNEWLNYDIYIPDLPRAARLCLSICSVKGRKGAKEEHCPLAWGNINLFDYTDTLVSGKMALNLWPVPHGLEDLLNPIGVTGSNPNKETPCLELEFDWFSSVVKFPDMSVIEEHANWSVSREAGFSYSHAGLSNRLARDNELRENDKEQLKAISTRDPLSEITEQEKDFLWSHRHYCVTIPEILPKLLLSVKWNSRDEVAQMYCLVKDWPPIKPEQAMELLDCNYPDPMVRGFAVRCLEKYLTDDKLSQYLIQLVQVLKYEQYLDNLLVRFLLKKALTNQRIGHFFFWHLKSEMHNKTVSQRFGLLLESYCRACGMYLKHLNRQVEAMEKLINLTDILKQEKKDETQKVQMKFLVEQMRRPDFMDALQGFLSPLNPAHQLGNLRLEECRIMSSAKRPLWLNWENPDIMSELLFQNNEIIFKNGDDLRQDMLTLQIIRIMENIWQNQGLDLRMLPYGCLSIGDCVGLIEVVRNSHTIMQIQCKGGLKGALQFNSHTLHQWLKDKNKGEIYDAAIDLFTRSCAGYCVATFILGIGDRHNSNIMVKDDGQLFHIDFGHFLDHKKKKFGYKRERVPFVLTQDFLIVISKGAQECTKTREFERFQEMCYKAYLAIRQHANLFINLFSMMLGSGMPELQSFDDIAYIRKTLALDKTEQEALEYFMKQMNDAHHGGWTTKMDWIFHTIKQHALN

Take `Cc1nc(N)c2ccc(C)c(C(=O)Nc3cnc4[nH]ccc4c3)c2n1`: the figures for the Ki in test [1] and in test [2] were 216 nM and 631 nM, respectively.

In the case of `Cc1ccc(NC(=O)c2cccc3c(N)nc(C)nc23)cn1`, the Ki (in general, the dissociation constant of the complex between target and ligand, obtained from inhibition or displacement) in test [1] came out at 31 nM; in test [2], 0.5 nM. For the same compound, it took 112 nM to reach half-maximal inhibition in test [3] (IC50).

For `Cc1nc(N)c2cc(CN(C)C)cc(C(=O)Nc3ccn[nH]3)c2n1`, the Ki came to 1330 nM in test [1] and 188 nM in test [2].

`Cc1cc(C(=O)Nc2ccn[nH]2)c2nc(C)nc(N)c2c1`: the Ki in test [1] worked out at 3 nM; in test [2] it was 7 nM. In addition, half-maximal inhibition in test [3] (IC50) was put at 35 nM.

Turning to `Cc1ccc(NC(=O)c2c(C)ccc3c(N)nc(C)nc23)cn1`, the inhibition constant (Ki) in test [1] stood at 3250 nM; in test [2], 4550 nM.

As for `COc1ccc(NC(=O)c2cc(C)cc3c(N)nc(C)nc23)cn1`, the results for the inhibition constant Ki in test [1] and in test [2] were 265 nM and 0.5 nM, respectively.

Consider `Cc1cc(C(=O)Nc2cn[nH]c2)c2nc(C)nc(N)c2c1`, for which the Ki in test [1] was 84 nM; in test [2] it was 5 nM. Besides, half-maximal inhibition in test [3] (IC50) was put at 24 nM.

In the case of `Cc1nc(N)c2ccc(C)c(C(=O)Nc3cn[nH]c3)c2n1`, the Ki in test [2] was > 100 nM.

Take `COc1ccc(NC(=O)c2c(C)ccc3c(N)nc(C)nc23)cn1`: the inhibition – broadly, the change of the read-out against control, counted positive when it falls – in test [4] is 15%. In addition, the results for the inhibitory constant (Ki) in test [1] and in test [2] were 1000 nM and > 100 nM, respectively.

On to `Cc1nc(N)c2ccc(C)c(C(=O)Nc3ccc(N(C)C)nc3)c2n1`, for which the Ki in test [2] is > 100 nM.

Regarding `Cc1nc(N)c2cccc(C(=O)Nc3ccc(N(C)C)nc3)c2n1`, the inhibition in test [4] was 57%. The inhibition constant Ki in test [1] is 1000 nM; in test [2], 54 nM.

As to `Cc1nc(N)c2cccc(C(=O)Nc3cnc4[nH]ccc4c3)c2n1`, the Ki in test [1] was 5 nM; in test [2], 1 nM.

As to `Cc1nc(N)c2cccc(C(=O)Nc3cn[nH]c3)c2n1`, the Ki was 21 nM in test [1] and 6 nM in test [2].

Regarding `Cc1nc(N)c2ccc(C)c(C(=O)Nc3ccn[nH]3)c2n1`, the inhibition constant Ki in test [1] worked out at 984 nM; in test [2], 4550 nM.

For the compound `Cc1cc(C(=O)Nc2ccc(N(C)C)nc2)c2nc(C)nc(N)c2c1`, the Ki in test [1] amounted to 162 nM; in test [2], 12 nM.

Consider `Cc1cc(C(=O)Nc2cnc3[nH]ccc3c2)c2nc(C)nc(N)c2c1`, for which the inhibition constant Ki in test [1] stood at 17 nM; in test [2], 0.3 nM. For the same compound, the half-inhibitory concentration (IC50) (usually the concentration needed to halve the response being measured) in test [3] came out at 43 nM.

Take `Cc1nc(N)c2cc(CN3CCOCC3)cc(C(=O)Nc3ccn[nH]3)c2n1`: the inhibitory constant (Ki) in test [1] came out at 13 nM; in test [2] it was 15 nM.

In the case of `Cc1cc(C(=O)Nc2ccc(C)nc2)c2nc(C)nc(N)c2c1`, the figures for the inhibitory constant (Ki) in test [1] and in test [2] were 66 nM and 0.5 nM, respectively. In test [3], this compound came in with a concentration for half-maximal inhibition (IC50) of 88 nM.
